Tests used:
[1] = target: T1, wild-type M3 muscarinic receptor (hM3) (Homo sapiens, UniProt P20309); conditions: human pulmonary artery smooth muscle cells (Armbruster et al., 2007); cited from earlier work
T1 construct: host or cells: human pulmonary artery smooth muscle cells

[2] = target: T2, hM3Dq receptor (hM3D) (Homo sapiens, UniProt P20309, A239G/Y149C); conditions: human pulmonary artery smooth muscle cells (Armbruster et al., 2007); cited from earlier work
T2 construct: host or cells: human pulmonary artery smooth muscle cells
T2 sequence (P20309 whole entry Y149C/A239G): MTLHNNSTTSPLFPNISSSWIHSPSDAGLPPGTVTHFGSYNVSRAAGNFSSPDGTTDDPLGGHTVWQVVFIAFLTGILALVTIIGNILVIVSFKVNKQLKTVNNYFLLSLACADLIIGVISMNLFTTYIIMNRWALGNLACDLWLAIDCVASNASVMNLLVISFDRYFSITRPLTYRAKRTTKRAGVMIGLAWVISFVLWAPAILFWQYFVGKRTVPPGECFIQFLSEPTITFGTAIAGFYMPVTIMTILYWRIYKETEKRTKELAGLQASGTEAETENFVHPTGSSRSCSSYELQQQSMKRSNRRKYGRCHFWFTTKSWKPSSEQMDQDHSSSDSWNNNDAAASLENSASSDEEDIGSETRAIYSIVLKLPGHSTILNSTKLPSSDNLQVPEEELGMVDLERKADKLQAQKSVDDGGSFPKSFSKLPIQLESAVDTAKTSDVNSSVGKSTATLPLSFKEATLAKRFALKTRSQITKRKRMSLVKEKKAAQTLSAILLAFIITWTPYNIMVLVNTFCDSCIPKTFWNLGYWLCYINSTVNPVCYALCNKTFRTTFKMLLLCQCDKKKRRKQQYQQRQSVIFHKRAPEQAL

[3] = target: T3, Gq DREADD (hM3D(Gq)) in the STN (Homo sapiens, UniProt P20309, A239G/Y149C); test: Rotarod test, 6OHDA PD mice expressing Gq DREADD in STN; format: in vivo, C57 black mice; conditions: IP CNO 5 mg/kg
T3 construct: expressed in transfected cells; host or cells: neurons of C57 black mice (GPe or STN), transduced with an AAV8 vector under the hSyn promoter
T3 sequence (P20309 whole entry Y149C/A239G): as above
Description: (§1) To monitor the motor impairment and the ability of the DREADD therapy to reverse these impairments the following behavioral tests are conducted. Open field test: to measure motor activity dysfunction. In this test the spontaneous movement of mice in a square arena are recorded and quantified. Rotarod test: Mice were placed on a rotating rod with rotation speed gradually increasing from 4 to 40 RPM using a preset acceleration program. The time mice fell from the rotating rod was measured, with 300 seconds being the maximal time measured on the rod.
(§2) Experiments were performed on 2-4 month old wild type C57 black mice. […]
(§3) Two behavioral tests were used for monitoring the behavior of mice: (1) Open field test: Mice were placed in a 30 cm×30 cm×30 cm open top box for 5 minutes and continuous recorded on a video. The results were analyzed off-line after the experiments ended. Using the EthoVision software, the mean velocity and distance traveled by the mice were monitored during the 5 minutes of open field test. In addition, the number and direction of 180° turns were monitored with the EthoVision software. […] The time mice fell from the rotating rod was measured, with 300 seconds being the maximal time measured on the rod. […]

[4] = target: T4, Gi DREADD (hM4D(Gi)) in the EP (GPi) and SNr nuclei (Homo sapiens, UniProt P08173, A203G/Y113C); test: Open field test, 6OHDA PD mice expressing Gi DREADD in EP and SNr; format: in vivo, C57 black mice
T4 construct: expressed in transfected cells; host or cells: neurons of C57 black mice (EP/SNr or STN), transduced with an AAV8 vector under the hSyn promoter
T4 sequence (P08173 1-479 Y113C/A203G): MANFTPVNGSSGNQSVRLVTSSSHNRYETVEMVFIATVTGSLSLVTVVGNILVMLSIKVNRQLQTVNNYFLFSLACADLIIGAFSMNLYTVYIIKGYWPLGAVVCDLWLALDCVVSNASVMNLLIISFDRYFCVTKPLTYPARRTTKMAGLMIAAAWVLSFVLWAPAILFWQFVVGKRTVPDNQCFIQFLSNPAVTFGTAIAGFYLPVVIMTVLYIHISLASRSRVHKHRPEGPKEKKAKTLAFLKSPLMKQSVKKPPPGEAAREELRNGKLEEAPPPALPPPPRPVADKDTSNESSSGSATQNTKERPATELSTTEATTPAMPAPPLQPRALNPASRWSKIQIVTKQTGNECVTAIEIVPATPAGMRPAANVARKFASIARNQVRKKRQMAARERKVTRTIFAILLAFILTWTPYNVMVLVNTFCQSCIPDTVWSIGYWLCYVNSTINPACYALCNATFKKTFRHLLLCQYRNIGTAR
Description: as §1
(§4) Experiments were performed on 2-4 month old wild type C57 black mice. To induce experimental PD, 1 microliter of a solution containing 6 hydroxy dopamine (6-OHDA) (3 mg/1 ml) was injected into the medial forebrain bundle via a small craniotomy drilled in the skull. The mouse head was fixated in a stereotaxic frame, and the 6OHDA containing solution was injected using a glass pipette held by a micro-manipulator and a micro-injector.
(§5) To express DREADDs (either the inhibitory DREADD Gi or the excitatory DREADD Gq) viral vectors were injected (either AAV8-hSyn-hM3D(Gq)-mCherry or AAV8-hSyn-hM4D(Gi)-mCherry). The viral vectors were injected through a craniotomy with a glass pipette held by a micromanipulator and a micro-injector. During the injections the head was fixated in a stereotaxic frame for accurate injections. Mice were anesthetized throughout the procedure with isoflurane.
(§6) The viral vectors […] were injected into several targets in the basal ganglia loop including the STN (either Gi and Gq), the EP and SNr nuclei (Gi), GPe (Gq) and the ventral thalamus (Gq). The injections were usually unilateral at the side of the 6OHDA injections. However, in cases of bilateral 6OHDA injections viral vectors were injected to the target nuclei bilaterally. Usually viral vectors and 6OHDA were injected at the same session.
(§7) To investigate the effect of DREADD activation, 500 μl of either IP CNO (5 mg/kg) or normal saline (NS-0.9% NaCl) was administered. Administration of either CNO or saline was performed in a blinded manner. […] Behavioral experiments were performed approximately 20-30 minutes after IP drug administration.
as §3

[5] = target: T5, Gi DREADD (hM4D(Gi)) in the STN (Homo sapiens, UniProt P08173, A203G/Y113C); test: Open field test, 6OHDA PD mice expressing Gi DREADD in STN; format: in vivo, C57 black mice; conditions: blinded IP CNO
T5 construct: expressed in transfected cells; host or cells: neurons of C57 black mice (EP/SNr or STN), transduced with an AAV8 vector under the hSyn promoter
T5 sequence (P08173 1-479 Y113C/A203G): T4 sequence (P08173 1-479 Y113C/A203G)
Description: as §1, §2, §3

[6] = target: T6, Gq DREADD (hM3D(Gq)) in the GPe nucleus (Homo sapiens, UniProt P20309, A239G/Y149C); test: Rotarod test, 6OHDA PD mice expressing Gq DREADD in GPe; format: in vivo, C57 black mice
T6 construct: expressed in transfected cells; host or cells: neurons of C57 black mice (GPe or STN), transduced with an AAV8 vector under the hSyn promoter
T6 sequence (P20309 whole entry Y149C/A239G): as the sequence (P20309 whole entry Y149C/A239G) above
Description: as §1, §2, §3

[7] = target: T6, Gq DREADD (hM3D(Gq)) in the GPe nucleus; test: Open field test, 6OHDA PD mice expressing Gq DREADD in GPe; format: in vivo, C57 black mice
Description: as §1, §4, §5
as §6, with “session. […]” for “session.”
as §3
In this set of experiments, the GPe nucleus, which serves as a major relay nucleus exclusively belonging to the indirect pathway, was targeted. More specifically, the GPe neurons were activated using the excitatory Gq DREADDs, and the effect on behavior on 6-OHDA induced hemi-parkinsonian mice, was monitored.

[8] = Open field test, mice without DREADD (normal control and 6OHDA hemi PD); format: in vivo, C57 black mice; conditions: normal control and 6OHDA hemi PD mice, no DREADD, IP CNO 5 mg/kg, blinded
Description: as §1, §2, §3

[9] = Rotarod test, mice without DREADD (normal control and 6OHDA hemi PD); format: in vivo, C57 black mice; conditions: normal control and 6OHDA hemi PD mice, no DREADD; IP CNO 5 mg/kg, blinded
Description: as §1, §2, §3

[10] = target: T4, Gi DREADD (hM4D(Gi)) in the EP (GPi) and SNr nuclei; test: Rotarod test, 6OHDA PD mice expressing Gi DREADD in EP and SNr; format: in vivo, C57 black mice
Description: as §1, §2, §3

[11] = target: T5, Gi DREADD (hM4D(Gi)) in the STN; test: Rotarod test, 6OHDA PD mice expressing Gi DREADD in STN; format: in vivo, C57 black mice; conditions: blinded IP CNO
Description: as §1, §2, §3

[12] = target: T3, Gq DREADD (hM3D(Gq)) in the STN; test: Open field test, 6OHDA PD mice expressing Gq DREADD in STN; format: in vivo, C57 black mice; conditions: IP CNO 5 mg/kg
Description: as §1, §4, §5, §6, §7, §3

[13] = 6OHDA hemi PD mice, unilateral Gq DREADD in STN
[14] = bilateral 6OHDA PD mice, bilateral Gq DREADD in STN
[15] = 6OHDA bilateral PD mice, bilateral Gi DREADD in both EP and SNr nuclei, p<0.01
[16] = 6OHDA hemi PD mice, unilateral Gi DREADD in EP and SNr, IP CNO 5 mg/kg
[17] = 6OHDA bilateral PD mice, Gq DREADD in both GPe nuclei, p<0.01
[18] = 6OHDA hemi PD mice, unilateral Gq DREADD in GPe, IP CNO 5 mg/kg

T1 sequence (P20309 whole entry): as the sequence (P20309 whole entry Y149C/A239G) above, with C149Y, G239A counted along it

CC(=O)OCC[N+](C)(C)C [ACh]
activation of wild-type M3 muscarinic receptor (hM3) [1]: potently activated

C[N+]1([O-])CCN(C2=Nc3cc(Cl)ccc3Nc3ccccc32)CC1 [CNO, clozapine-N-oxide]
activation of hM3Dq receptor resulting in PIP2 hydrolysis [2]: selectively activated
performances in the rotarod test, CNO vs NS [3, 13]: no significant differences
increase in the time before falling off the rotarod compared to NS [3, 14]: 81±15.8%
mean velocity in motor activity test, CNO vs NS [4, 15]: beneficial effect
improvement in the mean velocity in the open field test compared to NS [4, 16]: 36±9%
reduction in the number of clockwise rotations compared to NS [4, 16]: 68.9±10.8%
reduction in the percent of clockwise rotations compared to NS [4, 16]: 46±8.6%
effect on turns, CNO vs NS [5]: small, yet significant beneficial effect
mean velocity in the open field test, CNO vs NS [5]: did not significantly affect
average time on the rotating rod in the rotarod test, CNO vs NS [6, 17]: beneficial effect
increase in the time spent on the rotating rod in the rotarod test compared to NS [6, 18]: 25.6±6.1%
mean velocity in motor activity test, CNO vs NS [7, 17]: beneficial effect
increase in the mean velocity in the open field test compared to NS [7, 18]: 77.2±24.7%
reduction in the number of clockwise rotations compared to NS [7, 18]: 37.7±20%
reduction in the percent of clockwise rotations compared to NS [7, 18]: 40±7.8%
movement velocity in the open field test, CNO vs NS [8]: no significant differences
ipsilateral turning (number and percent of clockwise rotations), CNO vs NS ([8]; 5-minute open field): no significant differences
time to falling off the rotating rod, CNO vs NS [9]: no significant differences
average time on the rotating rod in the rotarod test, CNO vs NS [10, 15]: beneficial effect
increase in the time spent on the rotating rod in the rotarod test compared to NS [10, 16]: 30.5±7.1%
performances in the rotarod test, CNO vs NS [11]: did not significantly affect
activation of wild-type M3 muscarinic receptor (hM3) [1]: not by CNO
increase in the mean velocity in the open field test compared to NS [12, 13]: 117.6±26.9%
reduction in the number of clockwise rotations compared to NS [12, 13]: 37.2±17%
reduction in the percent of clockwise rotations compared to NS [12, 13]: 47.6±11.1%
increase in the mean velocity in the open field test compared to NS [12, 14]: 294.4±70.9%
